Measured values reported in patent US5280033A, “Substituted 1-(alkoxy-iminoalkyl) imidazole derivatives and their use in treating disease related to an enhancement of thromboxane-A2 syntheis” (Farmitalia Carlo Erba S RL, priority 1990, dated 1994).
Entries after “also recorded” stand apart in the source; their conditions may differ.

What was measured:
TxA2 Synthase [1] = molecular target: T1, TxA2 Synthase (Rattus norvegicus, UniProt P49430); assay: TxA2 Synthase activity in vitro: TxB2 generated in whole blood during clotting (RRM rats); assay type: cell-based; conditions: for inhibitory activity on TxA2 synthesis (in words): in vitro, RRM rat whole blood / glomeruli; for IC50: whole blood of RRM rats, clotting 1 h at 37° C., n = 8, limits for p = 0.95, read-out: In vitro effects on T × B2 production, IC50, Whole Blood
T1 construct: TxB2 generated in whole blood during clotting; from tissue; host or cells: rat whole blood, clotting (RRM rats)
T1 sequence (P49430 1-533): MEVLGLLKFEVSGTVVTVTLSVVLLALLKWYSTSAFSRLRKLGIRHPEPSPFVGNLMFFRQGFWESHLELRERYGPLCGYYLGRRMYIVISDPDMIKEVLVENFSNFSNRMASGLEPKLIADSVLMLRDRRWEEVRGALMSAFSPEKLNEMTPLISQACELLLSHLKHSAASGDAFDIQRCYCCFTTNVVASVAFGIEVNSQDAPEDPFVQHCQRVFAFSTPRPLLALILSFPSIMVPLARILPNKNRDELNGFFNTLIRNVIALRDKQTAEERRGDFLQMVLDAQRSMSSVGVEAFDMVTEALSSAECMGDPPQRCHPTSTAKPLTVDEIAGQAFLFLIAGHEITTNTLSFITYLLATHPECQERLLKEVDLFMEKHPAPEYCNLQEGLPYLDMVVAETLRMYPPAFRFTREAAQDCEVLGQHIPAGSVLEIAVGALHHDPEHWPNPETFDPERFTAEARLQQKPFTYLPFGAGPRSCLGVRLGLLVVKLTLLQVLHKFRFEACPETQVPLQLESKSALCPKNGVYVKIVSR
Method: (§1) The compounds of formula (I) were for example tested for their ability to inhibit TxA2 Synthase activity (as reflected by TxB2 generated in whole blood during clotting or in isolated glomeruli) in vitro in the rat.
(§2) The in vitro experiments were carried out as follows: The effect of the compounds on TxA2 synthesis was evaluated in serum and in glomeruli isolated from kidney cortex of reduced renal mass rats (RRM). Ablation of >70% of renal mass in the rat results in hypertension, proteinuria and glomerular sclerosis of the remnant kidney. Rats with a remnant kidney have increased excretion of thromboxane in the urine when compared with normal rats (Purkerson et al., Proc. Natl. Acad. Sci. USA 82, 193, 1985).
Blood was withdrawn from the abdominal aorta of the animals under light ether anesthesia.
Samples were then allowed to clot for 1 h at 37° C., centrifuged at 3000 rpm for 10 min, serum collected and stored at -20° C. until assayed. TxB2 levels were determined by RIA according to previously described procedures [Patrono et al.-Thromb. Res. 17, 3/4, 317, 1980] using highly specific antibody.

TxA2 Synthase [2] = molecular target: T1, TxA2 Synthase; assay: TxA2 Synthase activity in vitro: TxB2 production in isolated glomeruli (RRM rats); assay type: cell-based; conditions: isolated glomeruli of RRM rats, 1 h at 37° C., n = 6; limits for p = 0.95; read-out: In vitro effects on T × B2 production, IC50, Glomeruli
Method: as §1, §2
The isolated glomeruli of 4 rats were pooled, suspended in modified Krebs buffer (pH 7.3) and divided into portions of 1 ml each containing a concentration of the test compounds or of the reference compounds.

TxA2 Synthase [3] = molecular target: T1, TxA2 Synthase; conditions: no test data given; cited from earlier work
[4] = molecular target: T2, TxA2 receptor (washed human platelets) (Homo sapiens, UniProt P21731); assay: TxA2 antagonism, [^3H]-SQ 29,548 binding displacement in washed human platelets
T2 construct: endogenous in cells; host or cells: washed platelets of healthy human volunteers
T2 sequence (P21731 1-343): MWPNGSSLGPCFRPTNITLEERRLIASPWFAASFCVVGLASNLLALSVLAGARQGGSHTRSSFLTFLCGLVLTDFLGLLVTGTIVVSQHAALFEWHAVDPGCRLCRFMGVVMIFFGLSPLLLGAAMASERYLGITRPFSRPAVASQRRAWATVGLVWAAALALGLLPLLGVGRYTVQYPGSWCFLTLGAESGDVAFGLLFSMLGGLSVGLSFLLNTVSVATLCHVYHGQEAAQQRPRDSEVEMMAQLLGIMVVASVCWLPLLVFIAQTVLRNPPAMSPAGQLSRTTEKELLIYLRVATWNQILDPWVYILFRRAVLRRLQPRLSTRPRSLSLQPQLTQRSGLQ
Method: Moreover the compounds of the invention were tested for TxA2 antagonism in a binding assay in washed human platelets, using as radiolabelled ligand [^3 H]-SQ 29,548.
The experiments were carried out as follows: Blood from healthy volunteers of both sexes who had no taken any medication for at least 10 days is collected into one-tenth volume of acid citrate dextrose containing indomethacin (28 μM). Platelet rich plasma (PRP), obtained by centrifugation of the blood at 200×g for 20 min, is washed twice (1000×g for 10 min). The platelets are then resuspended in Tyrode-Hepes buffer (pH 7.4) to a final concentration of […] and incubated for 0-60 min at 25° with [^3 H]-SQ 29,548 (5 nM). For displacement experiments various concentrations (10^-9 -10^-4 M) of competing ligands were added and incubated for 30 min at 25° C.
After the incubation, 4 ml of ice-cold TRIS-HCL buffer (10 mM, pH 7.4) was added to each tube and the reaction mixture was immediately filtered by suction through a Whatman […] glass filter disc which was washed 2 times with ice-cold TRIS-HCl (4 ml) and counted for radioactivity by a Packard-β-counter.

| Compound | inhibitory activity on TxA2 synthesis (in words) (TxA2 Synthase [1]) | IC50 (TxA2 Synthase [1]) [nM] | IC50 (TxA2 Synthase [2]) [nM] | TxA2 synthase inhibitory activity of known compound (in words) (TxA2 Synthase [3]) | IC50 ([4]; [^3H]-SQ 29,548 5 nM, 30 min at 25° C.) [nM] | affinity for the receptor (in words) ([4]; [^3H]-SQ 29,548 binding) |
| --- | --- | --- | --- | --- | --- | --- |
| O=C(O)CCCCO/N=C(/c1ccccc1)C(Cc1ccccc1)n1ccnc1 (racemic) [FCE 27108, (±) (Z)-5-[1-phenyl-2-(imidazol-1-yl)-2-benzylethylidene]aminoxypentanoic acid] | marked inhibitory activity on TxA2 synthesis significantly more potent than that of reference compounds Dazoxiben and ASA | 23 | – | – | – | – |
| O=C(O)CCCCO/N=C(\Cn1ccnc1)C1CCCCC1 [FCE 26398, (Z)-5-[1-cyclohexyl-2-(imidazol-1-yl)-ethylidene]aminoxypentanoic acid] | marked inhibitory activity on TxA2 synthesis significantly more potent than that of reference compounds Dazoxiben and ASA | 19 | 36 | – | – | – |
| O=C(O)COc1ccc(CCNS(=O)(=O)c2ccccc2)cc1 [BM 13177, Sulotroban] | – | – | – | devoid of TxA2 synthase inhibitory activity | – | – |
| O=C(O)CCCCO/N=C(\c1ccccc1)C(Cc1ccccc1)n1ccnc1 (racemic) [FCE 27109, (±) (E)-5-[1-phenyl-2-(imidazol-1-yl)-2-benzylethylidene]aminoxypentanoic acid] | marked inhibitory activity on TxA2 synthesis significantly more potent than that of reference compounds Dazoxiben and ASA; also recorded: active as TxA2 synthase inhibitor | 48.3 | – | – | 190 | good affinity for the receptor better than that showed by the known compound Sulotroban (BM 13177) |
| CC(=O)Oc1ccccc1C(=O)O [ASA, Acetylsalicylic acid, reference compound] | – | 42000 | – | – | – | – |
